The test system of assay [1] is Xchk1. Briefly: Phosphorylation of Xchk1 in Xenopus egg extracts. Type of assay: biochemical.
Method: To address this question, we first measured phosphorylation of Xchk1 in egg extracts undergoing a checkpoint delay in response to a block to DNA replication. […] Briefly, ^35S-labeled wildtype or mutant Xchk1 (T314A, S344A, T314A+S344A, S356A, S365A, S356A+S365A, 4AQ) protein was incubated with egg extracts in the presence or absence of aphidicolin. ^35S labeled proteins were isolated and analyzed by gel electrophoresis for a phosphorylation-dependent shift in mobility.
Using the S344-p antibodies, we examined in more detail the phosphorylation of Xchk1 expressed in egg extracts. […] Following the incubation, the recombinant proteins were reisolated with glutathione agarose and detected by immunoblot with anti-GST antibodies and anti-S344-p antibodies.
Following 90 minute incubation, the preparation was diluted in 400 μL of dilution buffer (10 mM HEPES at pH 7.5, 150 mM NaCl, 20 mM β-glycerolphosphate, 2.5 mM EGTA, and 0.1% CHAPS). Recombinant Xchk1 proteins were isolated with glutathione agarose, washed, eluted, subjected to SDS-PAGE, and immunoblotted with either anti-GST antibodies (Santa Cruz Biotechnology) or anti-S344-p antibodies.
Assay [2] concerns the target T1, Xatr (Xenopus laevis, UniProt Q9DE14). In words: Binding of Xatr to single-stranded and double-stranded DNA cellulose in egg cytosol. Details: we examined the association of Xatr with both single and double-stranded DNA in Xenopus egg extracts; from tissue; host or cells: Xenopus interphase egg cytosol. The conditions noted are these: 50 μL cytosol, with or without APH. The method, then:
In order to functionally characterize Xatr, we examined the association of Xatr with both single and double-stranded DNA in Xenopus egg extracts, under a variety of conditions. […] Briefly, control cellulose, single-stranded DNA cellulose, or double-stranded DNA cellulose were incubated with 50 μL of cytosol in the presence or absence of APH or PCL. Washed cellulose beads were boiled in gel loading buffer, and half of this was subjected to immunoblot analysis using an Xatr polyclonal antibody prepared in Example 1.
Preparation of DNA cellulose: M13 DNA (single-stranded DNA) was prepared according to the manufacturers instructions (Amersham). pBS plasmids (pBluescript—double stranded DNA) were prepared by a standard alkaline lysis procedure. 1 mg of M13 DNA or pBluescript DNA in 1 mL of TE buffer (10 mM Tris-HCL, 1 mM EDTA at pH 8.0) was incubated with 0.3 grams of cellulose for 5 minutes at 23° C. Following incubation, the preparation was lyophilized for 18 hours. The resulting lyophilized powder was resuspended in 20 volumes of TE, incubated at 4° C. for 24 hours, washed with TE, and frozen at −70° C. until use. Naked control cellulose was prepared under the same conditions, however, the addition of either single or double stranded DNA was omitted.
Binding of Xatr to DNA cellulose: 25–100 μL of DNA cellose was incubated with 50–500 μL of interphase egg cytosol for 40 minutes at 23° C. […]

The target in assay [3] is TOR (Homo sapiens, UniProt P42345). The conditions noted are these: cited from earlier work.
Assay [4] addresses T1, Xatr. In words: Xatr kinase assay: phosphorylation of model substrate PHAS-I by anti-Xatr immunoprecipitates. Type of assay: biochemical. Details: Xatr was immunoprecipitated from Xenopus egg extracts using an anti-Xatr antibody; from tissue; host or cells: Xenopus egg extracts (immunoprecipitate with anti-peptide 1617-1630 antibody). The conditions noted are these: 0.04, 0.2, 1 or 5 mM caffeine; anti-Xatr immunoprecipitates from egg extracts; autoradiography. As for the experimental part:
Given the conservation of the PIK-related kinase domain among ATR homologs, we characterized the kinase activity of Xatr. Xatr was immunoprecipitated from Xenopus egg extracts using an anti-Xatr antibody (as described in Example 1).
To further assess the relationship between Xatr and other PIK-related kinases, we next assessed the effects of caffeine on the kinase activity of Xatr. […] Briefly, kinase assays were performed by incubating anti-Xatr immunoprecipitates (lanes 1–5) or control immunoprecipitates (lanes 6–10) with the model substrate PHAS-I, in the presence of 0 (lanes 1 and 6), 0.04 mM (lanes 5 and 10), 0.2 mM (lanes 4 and 9), 1 mM (lanes 3 and 8) or 5 mM (lanes 2 and 7) caffeine. Proteins were subjected to SDS-PAGE and visualized by silver staining (bottom panel). Phosphorylation of PHAS-I was detected by autoradiography (middle panel).
METHODS: Polyclonal antibodies generated against an Xatr peptide ([…], SEQ ID NO: 11), as shown in Example 1, were used to immunoprecipitate Xatr. Immunoprecipitation and kinase assays were performed using standard methods, and as previously shown (Guo and Dunphy (2000) Mol. Biol Cell 11: 1535–1546).

The target in assay [5] is ATR (Homo sapiens, UniProt Q13535). The settings on record: cited from earlier work.
In assay [6] the target is ATM (Homo sapiens, UniProt Q13315). The conditions noted are these: cited from earlier work.

These results are taken from patent US7098007B2, “Cloning and functional assays of Xenopus ATR” (California Institute of Technology, priority 2001, dated 2006).

Entries after “also recorded” stand apart in the source; their conditions may differ.

T1 sequence (Q9DE14 whole entry Y191C/P249S/H2082P/D2362G): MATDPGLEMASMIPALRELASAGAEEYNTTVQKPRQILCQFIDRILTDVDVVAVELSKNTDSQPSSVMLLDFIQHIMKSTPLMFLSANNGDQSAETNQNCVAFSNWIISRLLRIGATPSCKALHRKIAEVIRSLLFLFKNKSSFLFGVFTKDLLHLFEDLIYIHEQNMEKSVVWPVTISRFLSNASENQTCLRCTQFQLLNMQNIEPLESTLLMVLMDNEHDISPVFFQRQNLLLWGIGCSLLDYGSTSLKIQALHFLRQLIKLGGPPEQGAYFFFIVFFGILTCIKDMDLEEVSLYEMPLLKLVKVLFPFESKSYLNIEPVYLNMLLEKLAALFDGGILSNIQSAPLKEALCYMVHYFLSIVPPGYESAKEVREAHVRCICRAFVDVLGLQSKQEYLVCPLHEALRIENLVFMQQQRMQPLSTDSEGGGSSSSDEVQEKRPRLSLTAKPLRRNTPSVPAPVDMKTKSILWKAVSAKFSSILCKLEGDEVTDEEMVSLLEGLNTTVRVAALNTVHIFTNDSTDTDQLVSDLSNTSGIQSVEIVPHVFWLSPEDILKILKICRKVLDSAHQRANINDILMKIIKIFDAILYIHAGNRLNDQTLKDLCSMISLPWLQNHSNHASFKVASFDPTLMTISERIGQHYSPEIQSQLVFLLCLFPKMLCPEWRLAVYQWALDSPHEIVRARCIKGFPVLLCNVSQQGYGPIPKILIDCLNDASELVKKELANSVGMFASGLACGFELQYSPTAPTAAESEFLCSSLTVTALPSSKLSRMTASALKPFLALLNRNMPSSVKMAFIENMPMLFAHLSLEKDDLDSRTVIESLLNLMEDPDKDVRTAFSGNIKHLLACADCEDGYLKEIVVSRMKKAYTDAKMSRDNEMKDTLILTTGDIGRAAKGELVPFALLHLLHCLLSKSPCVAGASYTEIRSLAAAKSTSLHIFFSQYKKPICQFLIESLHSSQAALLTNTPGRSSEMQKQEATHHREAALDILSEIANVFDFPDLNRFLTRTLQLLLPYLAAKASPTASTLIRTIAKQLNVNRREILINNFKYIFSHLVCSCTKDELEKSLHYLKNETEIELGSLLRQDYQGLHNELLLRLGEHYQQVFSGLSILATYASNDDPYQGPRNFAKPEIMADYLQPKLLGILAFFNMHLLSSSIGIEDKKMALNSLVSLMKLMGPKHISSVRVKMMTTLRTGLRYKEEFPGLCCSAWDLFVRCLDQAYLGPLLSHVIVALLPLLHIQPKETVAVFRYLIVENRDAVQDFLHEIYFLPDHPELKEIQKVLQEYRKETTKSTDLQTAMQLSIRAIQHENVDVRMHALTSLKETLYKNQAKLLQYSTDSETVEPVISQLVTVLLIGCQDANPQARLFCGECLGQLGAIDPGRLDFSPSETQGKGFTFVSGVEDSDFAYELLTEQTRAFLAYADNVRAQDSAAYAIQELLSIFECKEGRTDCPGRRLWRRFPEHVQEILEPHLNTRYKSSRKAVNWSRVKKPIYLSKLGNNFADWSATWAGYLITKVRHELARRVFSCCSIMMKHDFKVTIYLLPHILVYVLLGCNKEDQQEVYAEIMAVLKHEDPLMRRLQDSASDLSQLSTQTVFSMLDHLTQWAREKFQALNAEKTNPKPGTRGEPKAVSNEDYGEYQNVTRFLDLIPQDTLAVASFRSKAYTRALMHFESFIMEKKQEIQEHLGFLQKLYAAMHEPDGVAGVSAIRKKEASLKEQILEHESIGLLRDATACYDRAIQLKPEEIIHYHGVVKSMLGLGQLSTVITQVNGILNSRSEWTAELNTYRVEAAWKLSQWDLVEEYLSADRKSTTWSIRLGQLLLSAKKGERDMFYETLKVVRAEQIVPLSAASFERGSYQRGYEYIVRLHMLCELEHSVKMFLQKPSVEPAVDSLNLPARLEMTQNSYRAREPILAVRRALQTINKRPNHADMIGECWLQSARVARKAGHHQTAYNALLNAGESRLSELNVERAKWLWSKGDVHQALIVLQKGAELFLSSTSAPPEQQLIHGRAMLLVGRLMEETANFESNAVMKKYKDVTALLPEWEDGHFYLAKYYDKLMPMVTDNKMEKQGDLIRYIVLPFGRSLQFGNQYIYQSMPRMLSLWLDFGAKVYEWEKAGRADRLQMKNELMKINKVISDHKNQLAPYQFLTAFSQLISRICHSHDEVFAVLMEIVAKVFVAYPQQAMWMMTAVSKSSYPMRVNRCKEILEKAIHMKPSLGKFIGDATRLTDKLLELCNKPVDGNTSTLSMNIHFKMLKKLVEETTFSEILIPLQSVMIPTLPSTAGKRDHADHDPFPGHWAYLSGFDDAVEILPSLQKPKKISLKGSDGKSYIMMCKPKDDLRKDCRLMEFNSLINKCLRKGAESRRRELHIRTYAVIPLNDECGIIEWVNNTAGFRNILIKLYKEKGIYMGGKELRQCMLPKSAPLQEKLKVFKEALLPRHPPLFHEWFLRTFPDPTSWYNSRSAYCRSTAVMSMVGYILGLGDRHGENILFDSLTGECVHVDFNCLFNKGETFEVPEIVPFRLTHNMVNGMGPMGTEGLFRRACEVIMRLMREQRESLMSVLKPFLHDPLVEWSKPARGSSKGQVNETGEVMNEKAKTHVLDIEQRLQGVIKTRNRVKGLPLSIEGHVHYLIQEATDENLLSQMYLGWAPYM

In the case of `C[C@@]1(CO)[C@H](O)CC[C@@]2(C)[C@H]1CC[C@H]1C[C@@H]3C[C@@]12CC[C@]3(O)CO` [aphidicolin], the “phosphorylation of wildtype Xchk1 at Ser 344 (anti-S344-p immunoblot)” value in assay [1] (100 μg/mL aphidicolin and sperm nuclei, 90 minutes, interphase extract) is recorded as “phosphorylated at position 344”. Also, the “phosphorylation of wildtype Xchk1 (phosphorylation-dependent shift in mobility)” value in assay [1] (35S-labeled Xchk1 in egg extracts, presence versus absence of aphidicolin) was “phosphorylated”. The “interaction of Xatr with DNA cellulose” value in assay [2] was “occurs in the presence or the absence”.
In the case of `Cn1c(=O)c2c(ncn2C)n(C)c1=O` [caffeine], the “kinase activity of TOR, sensitivity to caffeine” value in assay [3] is on record as “sensitive”. The “kinase activity of Xatr (phosphorylation of PHAS-I)” value in assay [4] was “significant decrease in phosphorylation of PHAS-I; also recorded: sensitive”. In assay [5], the “kinase activity of ATR, sensitivity to caffeine” value is “sensitive”. Moreover, in assay [1] (egg extracts treated with aphidicolin, compared with FIG. 3D), the “half-maximal dose for inhibition of Xchk1 phosphorylation, compared with inhibition of Xatr kinase activity” value is on record as “approximately the same half-maximal dose”. Further, the “phosphorylation of Xchk1 in response to unreplicated DNA” value in assay [1] (egg extracts treated with aphidicolin, increasing concentrations of caffeine) was “inhibited”. For the same compound, in assay [6], the “kinase activity of ATM, sensitivity to caffeine” value was “sensitive”.
